# Assay results: patent US10517964B2, “Optical imaging probes, optical imaging systems, methods of optical imaging, and methods of using optical imaging probes” (priority 2011, dated 2019)
# Key:
# [1] = system: primary bladder tumor; conditions: primary bladder tumor in humans; cited from earlier work
# [2] = system: C6 glioma tumor; assay: Cerenkov luminescence imaging with 6 mm fiber optic bundle in mice bearing C6 glioma; assay type: in vivo; conditions: n=4
# Source text: Typical optical endoscopy imaging system includes an endoscope (usually made out of optical fibers and/or optical lenses such as grin/rod lenses), a white light source, and a CCD camera that is connected to the computer monitor. […] The subject “S” was placed […] the field of view (FOV) of the imaging system. The input end of the OF was placed close to the subject “S”. The output end of the “OF” faced the CCD camera such that the image transmitted by the output end was imaged on to the CCD camera using a relay lens system. The optical signal was normalized to photons per second per centimeter square per steradian (p/s/cm^2/sr). Identical settings were used for both in vitro and living mouse experiments.
# ^18F-FDG was produced by the Radiochemistry Facility at Stanford University using standard procedures. […] A CRC-15R PET dose calibrator (Capintec Inc., Ramseb, N.J.) was used for all radioactivity measurements. […]
# To further characterize the distribution of ^18F-FDG, tumors and other organs were removed from the sacrificed mice (n=4) and subjected to fiber optic imaging as mentioned above. Inset figure on top right corner of each organ in FIG. 3.6(a) represents average Cerenkov radiance detected by a 6 mm fiber optic bundle. FIG. 3.6(b) represents biodistribution of ^18F-FDG in various tissues at one hour post injection in mice as measured using optical signals from radionuclides. […]
# [3] = system: C6-fluc tumors; assay: in vivo radioactive OI and microPET of mice bearing C6-fluc glioma
# Description: [^18F]FDG has been widely used for imaging tumor metabolism^2,13,14, and Na^18F can accumulate in the bone^14. In this study, a group of mice (n=3) were implanted with firefly luciferase (fluc) transfected rat C6 glioma (C6-fluc). A day prior to the radioactive imaging, the mice were given with luciferin and bioluminescence OI was performed to verify the presence of tumor (FIG. 1.3a). Then [^18F]FDG was injected to the mice bearing C6-fluc glioma and imaged sequentially with IVIS Spectrum (FIG. 1.3b) and microPET (FIG. 1.3c). […] High imaging signals from bladder and brain were also observed by both modalities. But heart was hardly visible in the radioactive OI because it localizes deep inside of the mice body. After we sacrificed and open the thorax of the mice, the heart could be easily identified (FIG. 1.3d, yellow arrow). To further characterize the distribution of [^18F]FDG using radioactive OI, tumors and other normal organs and tissues were removed from the mice sacrificed and subjected to IVIS Spectrum imaging.
# Quantitative analysis of both radioactive OI and microPET images was performed. The OI intensities in the tumor and the normal tissue as a function of time for [^18F]FDG was depicted in FIG. 1.3f, while the radioactivity accumulation in tumor and muscle over time was shown in FIG. 1.3g. […] Finally, regression analysis was performed for the tumor uptakes obtained from two imaging modalities, in order to further evaluate the quantitative analysis data obtained from radioactive OI. Good correlation was seen between the radioactive OI signal intensities and microPET images derived tumor uptakes (FIG. 1.3h, r^2 over 0.90 for the analyses). […]
# Radioactive optical imaging: In vivo radioactive OI was also performed with an IVIS Spectrum system. […] Images were acquired and analyzed using Living Image 3.0 software (Caliper life sciences, Hopkinton, Mass.). Quantification of Radioactive OI images was corrected in accordance with radionuclides' respective physical decay properties. […]
substance,measurement,setting,value
2-deoxy-2-[^18F]fluoro-D-glucose [[^18F]FDG],standard uptake value (SUV),[1],~4.5
same,in vivo tracer uptake by fiber bundle signal,"[2]; 900 μCi i.v., 90 minutes post-injection",Relatively high signals from the subcutaneous tumor and brain
same,ex vivo tissue distribution by fiber bundle signal,[2]; one hour post injection,"High signal was mainly observed from the tumor, heart, brain, and kidney tissue samples"
same,tumor uptake over time,[3]; from 0.5-2 h,increased over time
same,tumor localization,"[3]; radioactive OI and microPET, 0.5-2 h p.i.",preferentially localized and was retained in C6-fluc tumors
same,ex vivo distribution in tumors and normal organs,"[3]; radioactive OI of removed tissues, 2.1 h p.i.",High activity was mainly observed from the tumor and heart tissue samples
